Emax data for 14 substances are collected here from patent publication US6936585B2, “Corticotropin releasing factor 2 receptor agonists” (priority 2002, dated 2005).

For test [1], the target named is T1, CRF2R (Homo sapiens, UniProt Q13324).
T1 sequence (Q13324 1-411): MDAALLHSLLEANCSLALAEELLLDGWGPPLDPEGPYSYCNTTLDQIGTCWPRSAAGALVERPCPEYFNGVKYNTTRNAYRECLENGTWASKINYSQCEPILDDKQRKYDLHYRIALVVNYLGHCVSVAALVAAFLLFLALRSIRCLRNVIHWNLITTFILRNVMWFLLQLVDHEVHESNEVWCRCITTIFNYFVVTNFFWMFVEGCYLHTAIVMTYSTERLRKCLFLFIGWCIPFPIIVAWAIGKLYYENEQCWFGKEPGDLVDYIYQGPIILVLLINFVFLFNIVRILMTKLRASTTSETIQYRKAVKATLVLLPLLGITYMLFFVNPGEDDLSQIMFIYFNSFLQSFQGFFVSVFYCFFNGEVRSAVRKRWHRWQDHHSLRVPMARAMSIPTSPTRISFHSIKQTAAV
Kind of test: CRF2R agonist activation (EC50 / Emax), called comparative CRF binding. Particulars: read-out: CRF2R Emax. Format: cell-based. In a few lines: (§1)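 CRFR-expressing cells + peptide vs vehicle; read-out cAMP (lysate assay) or CRE-linked reporter expression (luciferase, CAT, fluorescent protein, alkaline phosphatase, etc.). Signal compared against vehicle-treated cells.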

Test [2] has as its target T2, CRF1R (Homo sapiens, UniProt P34998).
T2 sequence (P34998 24-415): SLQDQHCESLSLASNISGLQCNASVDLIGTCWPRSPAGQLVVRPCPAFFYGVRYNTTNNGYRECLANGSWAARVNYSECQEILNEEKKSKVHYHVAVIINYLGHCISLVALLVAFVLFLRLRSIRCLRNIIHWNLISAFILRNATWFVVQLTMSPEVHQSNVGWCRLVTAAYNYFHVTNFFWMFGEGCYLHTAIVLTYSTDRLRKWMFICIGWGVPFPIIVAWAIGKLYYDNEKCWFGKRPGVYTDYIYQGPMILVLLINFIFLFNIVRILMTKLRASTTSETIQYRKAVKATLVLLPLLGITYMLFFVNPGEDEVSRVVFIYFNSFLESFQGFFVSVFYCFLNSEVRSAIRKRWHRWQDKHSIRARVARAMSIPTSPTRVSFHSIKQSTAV
Kind of test: CRF1R agonist activation (EC50 / Emax), called comparative CRF binding. In kind it is cell-based. As to conditions: read-out: CRF1R Emax. In a few lines:
as §1

Ends that are not written are not given here.

For orientation: Emax means the maximal effect, on the per cent scale that the assay sets. For “SQEPPISLDLPIQLLREVLEMTKADQLAQQAHSNRKLLDIA-NH2 [compound 100]”, the Emax was determined as 9.85% in test [1] and 6.25% in test [2].

For “SQEPPISLDLPLGLLREVLEMTKADQLAQQAHSNRKLLDIA-NH2 [compound 90]”, the Emax in test [1] came to 12.2%; in test [2], 4%.

On to “SQEPPISLDLPLHLLREVLEMTKADQLAQQAHSNRKLLDIA-NH2 [compound 102]”, for which the Emax in test [1] is 13.5%; in test [2] it was 7.8%.

Regarding “SQEPPISLDLPLQLLREVLEMTKADQLAQQAHSNRKLLDIA-NH2 [compound 95]”, the Emax in test [1] amounted to 8.25%; in test [2], 5.55%.

For the substance “SQEPPISLDLPLYLLREVLEMTKADQLAQQAHSNRKLLDIA-NH2 [compound 101]”, the Emax in test [1] was 6.95%; in test [2], 7.35%.

As to “SQEPPISLDLPTELLREVLEMTKADQLAQQAHSNRKIIDIA-NH2 [compound 92]”, the Emax in test [1] amounted to 15.8%; in test [2], 4.6%.

Consider “SQEPPISLDLPTGLLREVLEMTKADQLAQQAHSNRKLLDIA-NH2 [compound 98]”, for which the Emax in test [1] worked out at 5.5%; in test [2] it was 4%.

“SQEPPISLDLPTHLLREVLEMTKADQLAQQAHSNRKLLDIA-NH2 [compound 99]”: the Emax in test [1] and in test [2] was 4.35% throughout.

On to “SQEPPISLDLPTQLLREVLEMTKADQLAQQAHSNRKLLDIA-NH2 [compound 105]”, for which the Emax was 9.15% in test [1] and 5.2% in test [2].

Turning to “SQEPPISLDLPTYLLREVLEMTKADQLAQQAHSNRKLLDIA-NH2 [compound 106]”, the Emax stood at 6.1% in test [1] and 4.8% in test [2].

For “SQEPPISLDLTFGLLREVLEMTKADQLAQQAHSNRKLLDIA-NH2 [compound 88]”, the Emax in test [1] is 12.6%; in test [2] it was 11.2%.

For the substance “SQEPPISLDLTFHLLREVLEQARARAAREQATTNARILARV-NH2 [compound 157]”, the Emax was 60.6% in test [1] and 91% in test [2].

On to “SQEPPISLDLTIGLLREVLEMTKADQLAQQAHSNRKLLDIA-NH2 [compound 86]”, for which the Emax stood at 8.1% in test [1] and 4.6% in test [2].

For the substance “SQEPPISLDLTIHLLREVLEMTKADQLAQQAHSNRKLLDIA-NH2 [compound 87]”, the Emax in test [1] is 14.7%; in test [2] it was 5.3%.
